PubChem BioAssay (NCI)
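Step 1: Grow cells in 96-well plates. Step 2: Expose to compound for 48 hours at 5 concentrations. Step 3: Interpolate endpoints linearly; if unreached, use highest concentration. GI50 = concentration required for 50% inhibition of growth. TGI is the concentration that stops growth completely.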 Where a SMILES comes first, the peptide text is derived from it. The star is where a group is joined. Cbz = O=C(OCc1ccccc1)*; Bn = c1ccc(C*)cc1

Assays:
Assay in all cases: growth of human tumour cells (NCI), 48 h
MOLT-4 leukemia = tested on: MOLT-4 leukemia
MALME-3M melanoma = tested on: MALME-3M melanoma
NCI-H522 lung = tested on: NCI-H522 lung
K-562 leukemia = tested on: K-562 leukemia
U251 CNS = tested on: U251 CNS
OVCAR-8 ovarian = tested on: OVCAR-8 ovarian
OVCAR-4 ovarian = tested on: OVCAR-4 ovarian
M14 melanoma = tested on: M14 melanoma
SF-295 CNS = tested on: SF-295 CNS
HL-60(TB) leukemia = tested on: HL-60(TB) leukemia
MDA-MB-231 breast = tested on: MDA-MB-231 breast
CCRF-CEM leukemia = tested on: CCRF-CEM leukemia

| SMILES | TGI (MOLT-4 leukemia) [µM] | TGI (MALME-3M melanoma) [µM] | TGI (NCI-H522 lung) [µM] | TGI (K-562 leukemia) [µM] | TGI (U251 CNS) [µM] | TGI (OVCAR-8 ovarian) [µM] | TGI (OVCAR-4 ovarian) [µM] | TGI (M14 melanoma) [µM] | TGI (SF-295 CNS) [µM] | TGI (HL-60(TB) leukemia) [µM] | TGI (MDA-MB-231 breast) [µM] | TGI (CCRF-CEM leukemia) [µM] | GI50 (MALME-3M melanoma) [µM] | GI50 (NCI-H522 lung) [µM] | GI50 (HL-60(TB) leukemia) [µM] | GI50 (MDA-MB-231 breast) [µM] | GI50 (M14 melanoma) [µM] | GI50 (SF-295 CNS) [µM] | GI50 (OVCAR-4 ovarian) [µM] |
| --- | --- | --- | --- | --- | --- | --- | --- | --- | --- | --- | --- | --- | --- | --- | --- | --- | --- | --- | --- |
| C[n+]1c2ccccc2c(CNCC(=O)O)c2ccccc21 | 0.811 | 28.6 | 0.307 | 11.1 | 12.5 | 7.84 | 25.2 | 18.4 | 17.2 | – | – | – | – | – | – | – | – | – | – |
| COc1ccc2c(c1)C(OC)C1c3c(cc4c(c3-2)OCO4)CCN1C (stereo unspecified) | > 51.7 | 3.97 | 6.23 | > 57.3 | 18.9 | 13.9 | 10.3 | 7.84 | 11.7 | > 20.6 | 9.59 | – | – | – | – | – | – | – | – |
| CS(=O)(=O)c1ccc2nc(-c3ccc(O)cc3)sc2c1 | > 100 | 31 | 29.6 | > 100 | 39.5 | 42.7 | – | 38.4 | 30.3 | 63.9 | 42.5 | > 100 | – | – | – | – | – | – | – |
| N=C(N)c1ccc(-c2ccc(-c3ccc4ccccc4c3)s2)s1 | – | 9.36 | 4.77 | – | – | – | – | 5.72 | 5.99 | 5.11 | 3.73 | – | 3.1 | 1.96 | 1.81 | 1.85 | 2.45 | 2.27 | – |
| C=CCNC1=C2C[C@@H](C)C[C@H](OC)[C@H](O)[C@@H](C)/C=C(\C)[C@H](OC(N)=O)[C@@H](OC)/C=C\C=C(/C)C(=O)NC(=CC1=O)C2=O | 13 | 3.39 | 22.3 | 29.7 | 49.5 | 46 | 26.4 | 17 | 7.46 | 1.06 | 23.6 | 10.6 | – | – | – | – | – | – | – |
| COc1ccc(N2C(=O)/C(=C\c3ccccc3)SC2c2cc(OC)c(OC)c(OC)c2)cc1 (stereo unspecified) | > 100 | > 100 | > 100 | > 100 | > 100 | > 100 | > 100 | > 100 | > 100 | – | > 100 | > 100 | – | – | – | – | – | – | – |
| C[P+](c1ccccc1)(c1ccc(Cl)cc1)c1ccc(Cl)cc1 | – | 19.6 | 33.1 | 74.4 | 39.3 | 36.6 | 45.2 | 34.4 | – | – | 82 | – | – | – | – | – | – | – | – |
| O=C(CSCC(=O)N/N=C\c1ccc(O)c(O)c1O)N/N=C\c1ccc(O)c(O)c1O | 11.9 | 52.3 | 44.4 | – | 19.2 | > 100 | 9.22 | 21.5 | 4.94 | 49.9 | 78.1 | 4.75 | – | – | – | – | – | – | – |
| NC(CCP(=O)(O)O)C(=O)O (stereo unspecified) | > 100 | > 100 | > 100 | > 100 | > 100 | > 100 | > 100 | > 100 | > 100 | > 100 | > 100 | > 100 | – | – | – | – | – | – | – |
| CCCCSCC(NC(=O)/C=C/c1c(C)[nH]c(=O)[nH]c1=O)C(=O)OC (stereo unspecified) | 205 | 65.7 | 132 | 367 | 147 | 246 | > 89 | – | 272 | 206 | – | 245 | – | – | – | – | – | – | – |
| CN(C)CCOc1cc2c(c3ccccc13)-c1ccccc1C2O (stereo unspecified) | 14.5 | 34.8 | 30.7 | 38 | 28.9 | 24.7 | 32.9 | – | 48.7 | 26.6 | – | 33.1 | – | – | – | – | – | – | – |
| C=CCOCCC(CC=C)C(=O)CC(=O)OC (stereo unspecified) | > 100 | > 100 | > 100 | > 100 | > 100 | > 100 | > 100 | > 100 | > 100 | > 100 | – | > 100 | – | – | – | – | – | – | – |
| c1ccc(-c2n(Cc3ccc4ccccc4c3)c3ccccc3[n+]2Cc2ccc3ccccc3c2)cc1 | – | 0.768 | – | – | – | – | 0.818 | – | 1.11 | – | 1.3 | – | 0.242 | – | – | 0.289 | – | 0.306 | 0.245 |
| CCn1c(=O)c(C(=O)O)c(Cl)c2cc3c(cc21)OCO3 | > 100 | > 100 | > 100 | > 100 | > 100 | > 100 | > 100 | – | > 100 | > 100 | – | > 100 | – | – | – | – | – | – | – |
| O=C(Nc1ccc(Cl)cc1)c1cc([N+](=O)[O-])ccc1O | 10.5 | 8.57 | 5.85 | 13.1 | > 70.7 | 30.7 | > 100 | 18.9 | 30.4 | 8.62 | – | 11 | – | – | – | – | – | – | – |
| O=CC1C(Cl)=Nc2nc3ccccc3n2C1c1ccccc1 (stereo unspecified) | – | 52.5 | 27.3 | 37.3 | 33.7 | 52.9 | 44 | 64.6 | > 100 | 58.3 | 38.6 | 63.1 | – | – | – | – | – | – | – |
| Nc1nc(Cl)c2ncn(Cc3cccc(CCl)c3)c2n1 | > 30.8 | 18.1 | 7.03 | > 51 | 6.15 | 11.3 | 5.07 | 12.9 | 21.3 | > 36.1 | 27.6 | > 30.7 | – | – | – | – | – | – | – |
| COC(=O)C(Cc1ccc(O)cc1)NC(=O)C(COCc1ccccc1)NC(=O)OCc1ccccc1 (stereo unspecified) (Cbz-Ser(Bn)-Tyr-OMe; configuration not given here) | > 100 | 39.6 | 37.3 | > 100 | 33.5 | 31.8 | 34 | 33.5 | 35.3 | > 100 | 33.1 | > 100 | – | – | – | – | – | – | – |
| C1CSCCSCSCCS1 | – | – | > 100 | – | > 100 | > 100 | > 100 | > 100 | > 100 | – | > 100 | – | – | – | – | – | – | – | – |
| O=C1c2cccc(O)c2C(=O)c2c(O)cccc21 | > 100 | – | > 100 | > 100 | > 100 | > 100 | > 100 | > 100 | > 100 | – | – | > 100 | – | – | – | – | – | – | – |
| O=[N+]([O-])c1cc(N=Nc2c(O)ccc3cc(S(=O)(=O)O)ccc23)c(O)c([N+](=O)[O-])c1 | > 100 | > 100 | > 100 | > 100 | > 100 | > 100 | > 100 | > 100 | > 100 | > 100 | > 100 | > 100 | – | – | – | – | – | – | – |
| COc1ccc(-c2oc3cc(OC(C)=O)cc(OC(C)=O)c3c(=O)c2OC)cc1 | 68.4 | 65.6 | 5.28 | 29.4 | 30.6 | 53.6 | – | 30.6 | 37.8 | 33.9 | 63.7 | 49.6 | – | – | – | – | – | – | – |
| CC(=O)OCC1OC(NC(=O)N(CCCl)N=O)C(OC(C)=O)C(OC(C)=O)C1OC(C)=O (stereo unspecified) | > 31.6 | > 100 | > 100 | > 100 | > 100 | > 100 | > 100 | – | > 100 | > 100 | – | > 100 | – | – | – | – | – | – | – |
